The target of this assay is bacterial protein synthesis (S30 extract from quinolone-succeptable Streptococcus pneumoniae ATCC 46919). Nature of the assay: Translation assay, firefly luciferase reporter system with S30 Streptococcus pneumoniae extract. The class given is biochemical. The following applies: cell-free S30 Streptococcus pneumoniae extract, luciferase mRNA; read-out: IC50, concentration which caused 50% inhibition of bacterial protein synthesis. The method, then: Bacterial protein synthesis inhibitory activity of the compounds and the aformentioned commercially-available antibacterials was determined by translation assays performed using the firefly luciferase reporter system described by Murray et al., (2001), “Staphylococcus aureus Cell Extract Transcription-Translation Assay: Firefly Luciferase Reporter System for Evaluating Protein Translation Inhibitors,” Antimicrob. Agents Chemother. 45(6): 1900-1904, replacing the Staphylococcus aureus S30 extract described therein with S30 Streptococcus pneumoniae extract from quinolone-succeptable Streptococcus pneumoniae ATCC 46919, and replacing plasmid coding for the luciferase gene with mRNA (encoding produced by in vitro transcription from the plasmid pAS10rbs3) which encoded the luciferase gene with an upstream Streptococcus pneumoniae promoter and Shine-Dalgarno site.

The values below come from patent publication US8163769B2, “Antibacterial compounds” (Abbott Laboratories, priority 2002, dated 2012).

pIC50: −log10 of the molar value.

With `CC(=O)NC[C@H]1CN(c2ccc(N3CCOCC3)c(F)c2)C(=O)O1` [Linezolid], the pIC50 was ~5.52.
